# Measured values from PMC7726444 (Frontiers in Pharmacology, 2020).
# Like-named read-outs stand apart in the source and are kept apart here.
# What was measured:
# [1] = biological target: T1, doubly truncated TPH1 (ΔNH102-ΔCOOH402) (Homo sapiens, UniProt P17752); assay: Tryptophan hydroxylase enzymatic activity assay (HPLC quantification of 5-OH-Trp), doubly truncated TPH1; assay type: biochemical; settings: for reduction of TPH1 activity: 100 µM compound, preliminary activity assay; for IC50: doubly truncated TPH1, 20 µM L-Trp, 200 µM BH4, 37°C, mean (95% confidence interval), three experiments in duplicate; for fold less potent inhibitor of TPH1 than omeprazole: relative to omeprazole TPH1 IC50
# T1 construct: The ΔNH102-ΔCOOH402 human TPH1 gene was cloned; six-His (C); made in house
# T1 sequence (P17752 102-402, stated change not applied): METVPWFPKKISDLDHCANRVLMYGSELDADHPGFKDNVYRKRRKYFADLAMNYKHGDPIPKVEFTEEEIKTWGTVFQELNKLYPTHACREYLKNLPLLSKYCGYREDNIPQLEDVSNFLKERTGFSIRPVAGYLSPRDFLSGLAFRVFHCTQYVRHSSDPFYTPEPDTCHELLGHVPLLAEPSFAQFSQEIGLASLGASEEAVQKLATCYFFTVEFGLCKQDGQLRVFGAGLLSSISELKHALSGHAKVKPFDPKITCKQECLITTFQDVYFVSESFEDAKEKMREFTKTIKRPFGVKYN
# WT full-length TPH2 = biological target: T2, WT full-length TPH2 (Homo sapiens, UniProt Q8IWU9); assay: Tryptophan hydroxylase enzymatic activity assay, WT full-length TPH2; assay type: biochemical; settings: mean (95% confidence interval), three experiments in duplicate
# T2 construct: both the doubly truncated TPH1 protein and WT full-length TPH2 protein; made in house
# T2 sequence (Q8IWU9 1-490): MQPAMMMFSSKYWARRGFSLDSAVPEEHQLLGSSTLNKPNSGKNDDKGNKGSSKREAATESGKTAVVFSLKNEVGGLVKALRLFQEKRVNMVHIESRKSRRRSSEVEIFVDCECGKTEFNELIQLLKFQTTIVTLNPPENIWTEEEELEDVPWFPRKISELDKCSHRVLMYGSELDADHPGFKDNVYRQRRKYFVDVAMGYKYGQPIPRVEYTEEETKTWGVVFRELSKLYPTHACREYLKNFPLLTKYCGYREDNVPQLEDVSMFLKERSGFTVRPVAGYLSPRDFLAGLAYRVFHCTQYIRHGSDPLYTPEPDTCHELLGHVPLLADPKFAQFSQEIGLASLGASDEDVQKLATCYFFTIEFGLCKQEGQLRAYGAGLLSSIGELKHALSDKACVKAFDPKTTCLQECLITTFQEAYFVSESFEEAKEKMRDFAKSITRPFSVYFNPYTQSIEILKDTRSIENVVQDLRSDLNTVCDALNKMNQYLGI
# MAO-A [2] = biological target: T3, MAO-A (Homo sapiens, UniProt P21397); assay: MAO-A enzymatic activity assay (MAO-A Inhibitor Screening Kit, fluorimetric detection of H2O2); assay type: biochemical; settings: 25°C, 15 min kinetic read; mean (95% confidence interval), three experiments
# T3 construct: purchased BioVision, Inc, Milpitas, CA
# T3 sequence (P21397 1-527): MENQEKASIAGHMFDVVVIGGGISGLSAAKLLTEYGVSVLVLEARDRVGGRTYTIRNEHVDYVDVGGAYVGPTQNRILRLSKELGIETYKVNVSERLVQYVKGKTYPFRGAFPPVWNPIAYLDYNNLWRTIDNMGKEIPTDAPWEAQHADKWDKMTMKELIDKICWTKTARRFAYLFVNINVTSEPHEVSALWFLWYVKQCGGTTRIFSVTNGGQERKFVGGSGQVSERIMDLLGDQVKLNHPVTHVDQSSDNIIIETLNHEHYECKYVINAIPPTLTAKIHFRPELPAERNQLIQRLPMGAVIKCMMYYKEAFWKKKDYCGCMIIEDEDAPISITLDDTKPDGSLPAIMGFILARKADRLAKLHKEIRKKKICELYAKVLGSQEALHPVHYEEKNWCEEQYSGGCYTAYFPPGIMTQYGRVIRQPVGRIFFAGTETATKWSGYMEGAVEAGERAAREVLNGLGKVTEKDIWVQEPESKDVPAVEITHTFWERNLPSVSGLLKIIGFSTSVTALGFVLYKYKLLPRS
# Experimental: The experiments were conducted following the manufacturer’s (BioVision, Inc, Milpitas, CA) instructions and were based on the fluorimetric detection of H2O2, a byproduct of the enzymatic activity of MAO-A, by measuring the fluorescence (Excitation/Emission at 535/587 nm) kinetically at 25°C for 15 min using a Tecan Spark plate reader (Tecan Group Ltd, Männedorf, Switzerland).
# Relative inhibition of MAO-A was calculated as a percentage using the following Eq. 2: %Relative inhibition=((Slope of EC−Slope of S)/Slope of EC)×100 (2)
# The slopes for all samples, either containing Enzyme Control (EC) or test substance (S), were calculated by dividing the net change in relative fluorescence units (ΔRFU; RFU2–RFU1) by the time interval (Δt; t2 –t1).
# MAO-A [3] = biological target: T3, MAO-A; design: method as in Petzer et al., 2013; settings: ref Petzer et al., 2013; cited from earlier work
SMILES,reduction of TPH1 activity [1],IC50 [1] [µM],fold less potent inhibitor of TPH1 than omeprazole [1] [fold],IC50 (WT full-length TPH2) [µM],IC50 (MAO-A [2]) [µM],IC50 (MAO-A [3]) [µM]
CSc1nc2cc(Cl)c(Oc3cccc(Cl)c3Cl)cc2[nH]1 [triclabendazole],more than 50%,~100,–,–,–,–
Cc1c(OCC(F)(F)F)ccnc1C[S@@+]([O-])c1nc2ccccc2[nH]1 [(R)-lansoprazole],–,18.8,6,3.36,137,–
COc1ccnc(C[S+]([O-])c2nc3ccc(OC(F)F)cc3[nH]2)c1OC (stereo not drawn) [Pantoprazole],–,21.7,6,8.2,462,–
COC(=O)C1=C(C#N)NC(C)=C(C(=O)OC(C)C)C1c1cccc([N+](=O)[O-])c1 (stereo not drawn) [nilvadipine],more than 50%,~100,–,–,–,–
CC1CCc2cc(F)cc3c(=O)c(C(=O)O)cn1c23 (stereo not drawn) [flumequine],more than 50%,~100,–,–,–,–
COc1ccc2[nH]c([S+]([O-])Cc3ncc(C)c(OC)c3C)nc2n1 (stereo not drawn) [Tenatoprazole],–,2.16,–,4.9,29.2,–
COCCCOc1ccnc(C[S+]([O-])c2nc3ccccc3[nH]2)c1C (stereo not drawn) [Rabeprazole],–,7.57,–,2.13,12.8,–
COc1ccnc(C[S+]([O-])c2nc3cc(-n4cccc4)ccc3[nH]2)c1C (stereo not drawn) [Ilaprazole],–,–,–,0.53,29,–
COc1ccc2nc([S@@+]([O-])Cc3ncc(C)c(OC)c3C)[nH]c2c1 [Esomeprazole],–,3.76,–,2.15,18,23
Cc1c(OCC(F)(F)F)ccnc1C[S+]([O-])c1nc2ccccc2[nH]1 (stereo not drawn) [Lansoprazole],–,24.6,6,5.21,251,–
